Where “and” joins values, the source holds several entries; their conditions need not be identical. Equal values may be shown once.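 In this assay, cells in 96-well plates receive the compound at five concentrations for 48 hours. Endpoints are linearly interpolated between the surrounding concentrations. GI50 = concentration required for 50% inhibition of growth. Definition used: TGI = concentration required for complete inhibition of growth.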
What was measured:
Assay in all cases: growth of human tumour cells (NCI), 48 h
[1] = tested on: SNB-19 CNS
[2] = tested on: UO-31 renal
[3] = tested on: NCI-H522 lung
[4] = tested on: SW-620 colon
[5] = tested on: NCI-H226 lung
[6] = tested on: SF-295 CNS
[7] = tested on: HCC-2998 colon
[8] = tested on: NCI/ADR-RES ovarian
[9] = tested on: HCT-15 colon
[10] = tested on: A549 NSCLC

| SMILES | GI50 [1] | TGI [1] | GI50 [2] | TGI [2] | GI50 [3] | TGI [3] [µM] | GI50 [4] | TGI [4] | GI50 [5] | TGI [5] | GI50 [6] | TGI [6] | GI50 [7] | TGI [7] | GI50 [8] | TGI [8] | GI50 [9] | TGI [9] | GI50 [10] | TGI [10] |
| --- | --- | --- | --- | --- | --- | --- | --- | --- | --- | --- | --- | --- | --- | --- | --- | --- | --- | --- | --- | --- |
| CC[C@@H]1C(=O)N(C)c2cnc(Nc3ccc(C(=O)NC4CCN(C)CC4)cc3OC)nc2N1C1CCCC1 | 0.0058 µM and < 0.01 µM | > 10 µM and 20.3 µM | 0.323 µM and 0.631 µM | > 3.97 µM and 15.1 µM | 0.00294 µM and < 0.01 µM | < 0.0561 | 0.00299 µM and < 0.01 µM | > 10 µM and 3.1 µM | 0.343 µM and 0.982 µM | > 10 µM and 16.8 µM | 0.0147 µM and 0.0189 µM | > 10 µM and 15 µM | 0.00426 µM and < 0.01 µM | 1.42 µM and 0.506 µM | 0.351 µM and 0.244 µM | > 10 µM and 19 µM | 0.186 µM and 0.219 µM | > 4.57 µM and 6.38 µM | 0.00602 µM and < 0.0113 µM | > 10 µM and 3.5 µM |
| CC(=O)OC[C@]1(C)C=C2C(=O)[C@](C)(O)C3(CC3)C(C)=C2[C@H]1O | 0.193 µM | 1.28 µM | 0.114 µM | 0.273 µM | 0.0798 µM | 0.39 | 0.044 µM | > 50 µM | 0.217 µM | 0.634 µM | 0.131 µM | 1.56 µM | 0.0985 µM | 0.353 µM | 0.0772 µM | 0.804 µM | 0.0306 µM | 31.8 µM | 0.172 µM | 2.8 µM |
| Oc1ccc2ccccc2c1N=Nc1nccs1 | – | > 100 µM | 0.216 µM | 11.9 µM | 2.22 µM | 12.4 | 0.396 µM | 19.5 µM | 2.75 µM | > 52.9 µM | 3.93 µM | > 57.4 µM | 3.61 µM | 33.2 µM | 0.393 µM | – | 0.32 µM | 19.6 µM | 6.18 µM | > 53.4 µM |
| CC(=O)OCCN1c2ccccc2Sc2cnccc21 | – | > 10 µM | – | > 10 µM | – | > 10 | – | > 10 µM | – | > 10 µM | – | > 10 µM | – | > 10 µM | – | > 10 µM | – | > 10 µM | – | > 10 µM |
| CC1(C)OC2[C@@H](CNC(=O)NC(=O)NC(=O)CI)O[C@@H](n3cnc4c(NC(=O)Nc5ccccc5)ncnc43)[C@H]2O1 (stereo partly drawn) | 27.1 µM | > 50 µM | 1.34 µM | 4.27 µM | 0.742 µM | 1.5 | 2.08 µM | 8.13 µM | 8.96 µM | 20.3 µM | 9.18 µM | 19.4 µM | 9.29 µM | 19.7 µM | 16.4 µM | > 50 µM | 4.84 µM | 11.9 µM | > 50 µM | > 50 µM |
| N#Cc1ccc(NC(=O)Nc2ccc(Oc3ccc(NC(=O)Nc4ccc(C#N)cc4)cc3)cc2)cc1 | 20 µM | 88.7 µM | 22.2 µM | > 100 µM | 10.9 µM | 95.5 | 26 µM | > 100 µM | 23.1 µM | > 100 µM | 0.379 µM | 13.6 µM | 0.764 µM | 7.53 µM | 13 µM | > 100 µM | 18 µM | > 100 µM | 17.8 µM | > 100 µM |
| C=C1C(=O)O[C@H]2[C@H]1CC/C(Cn1cc(-c3ccc(OC)cc3)nn1)=C\CC[C@@]1(C)O[C@@H]21 | 6.92 µM | 21.4 µM | 1.27 µM | 2.64 µM | 0.387 µM | 1.73 | 0.498 µM | 1.74 µM | 1.99 µM | 4.45 µM | 11 µM | 23.7 µM | 1.98 µM | 3.64 µM | 3.08 µM | 12.4 µM | 0.338 µM | 1.38 µM | 10.9 µM | 24.4 µM |
